Experimental data published in PubChem BioAssay (NCI).
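Tested at 5 concentrations; 48 h exposure; 96-well plates; endpoints linearly interpolated, else capped at highest concentration. The concentration for 50% growth inhibition is given as GI50. TGI: total growth inhibition.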

Columns and labels:
Assay in all cases: growth of human tumour cells (NCI), 48 h
786-0 renal = tested on: 786-0 renal
A498 renal = tested on: A498 renal
A549 NSCLC = tested on: A549 NSCLC
ACHN renal = tested on: ACHN renal
BT-549 breast = tested on: BT-549 breast
CAKI-1 renal = tested on: CAKI-1 renal
CCRF-CEM leukemia = tested on: CCRF-CEM leukemia
COLO 205 colon = tested on: COLO 205 colon
DU-145 prostate = tested on: DU-145 prostate
EKVX NSCLC = tested on: EKVX NSCLC
HCC-2998 colon = tested on: HCC-2998 colon
HCT-116 colon = tested on: HCT-116 colon
HCT-15 colon = tested on: HCT-15 colon
HL-60(TB) leukemia = tested on: HL-60(TB) leukemia
HOP-62 NSCLC = tested on: HOP-62 NSCLC
HOP-92 NSCLC = tested on: HOP-92 NSCLC
HS 578T breast = tested on: HS 578T breast
HT29 colon = tested on: HT29 colon
IGROV1 ovarian = tested on: IGROV1 ovarian
K-562 leukemia = tested on: K-562 leukemia
KM12 colon = tested on: KM12 colon
LOX IMVI melanoma = tested on: LOX IMVI melanoma
M14 melanoma = tested on: M14 melanoma
MALME-3M melanoma = tested on: MALME-3M melanoma
MCF7 breast = tested on: MCF7 breast
MDA-MB-231 breast = tested on: MDA-MB-231 breast
MDA-MB-435 = tested on: MDA-MB-435
MDA-MB-468 breast = tested on: MDA-MB-468 breast
MOLT-4 leukemia = tested on: MOLT-4 leukemia
NCI-H226 lung = tested on: NCI-H226 lung
NCI-H23 lung = tested on: NCI-H23 lung
NCI-H460 lung = tested on: NCI-H460 lung
NCI-H522 lung = tested on: NCI-H522 lung
OVCAR-3 ovarian = tested on: OVCAR-3 ovarian
OVCAR-4 ovarian = tested on: OVCAR-4 ovarian
OVCAR-5 ovarian = tested on: OVCAR-5 ovarian
OVCAR-8 ovarian = tested on: OVCAR-8 ovarian
PC-3 prostate = tested on: PC-3 prostate
RPMI-8226 leukemia = tested on: RPMI-8226 leukemia
RXF 393 renal = tested on: RXF 393 renal
SF-268 CNS = tested on: SF-268 CNS
SF-295 CNS = tested on: SF-295 CNS
SF-539 CNS = tested on: SF-539 CNS
SK-MEL-2 melanoma = tested on: SK-MEL-2 melanoma
SK-MEL-28 melanoma = tested on: SK-MEL-28 melanoma
SK-MEL-5 melanoma = tested on: SK-MEL-5 melanoma
SK-OV-3 ovarian = tested on: SK-OV-3 ovarian
SN12C renal = tested on: SN12C renal
SNB-19 CNS = tested on: SNB-19 CNS
SR leukemia = tested on: SR leukemia
SW-620 colon = tested on: SW-620 colon
T-47D breast = tested on: T-47D breast
TK-10 renal = tested on: TK-10 renal
U251 CNS = tested on: U251 CNS
UACC-257 melanoma = tested on: UACC-257 melanoma
UACC-62 melanoma = tested on: UACC-62 melanoma
UO-31 renal = tested on: UO-31 renal

Compound `COc1cc(/C=C/C(=O)c2cnn(-c3cc(=O)[nH]c4ccc(C)cc34)c2C)cc(OC)c1OC` has a GI50 (786-0 renal) of 3.52 µM, a TGI (786-0 renal) of 14.6 µM and a GI50 (A498 renal) of 18 µM. For the same compound, the TGI (A498 renal) was 35.9 µM, the GI50 (A549 NSCLC) was 3.17 µM and the TGI (A549 NSCLC) was 11.2 µM. The GI50 (ACHN renal) was 1.72 µM, the TGI (ACHN renal) was 3.79 µM and the GI50 (BT-549 breast) was 2.43 µM. The TGI (BT-549 breast) was 8.55 µM, the GI50 (CAKI-1 renal) was 3.75 µM and the TGI (CAKI-1 renal) was 18.6 µM. The GI50 (CCRF-CEM leukemia) was 2.28 µM, the TGI (CCRF-CEM leukemia) was 8.76 µM and the GI50 (COLO 205 colon) was 2.77 µM. It also gave a TGI (COLO 205 colon) of 8.8 µM, a GI50 (DU-145 prostate) of 3.39 µM and a TGI (DU-145 prostate) of 12.6 µM. It also gave a GI50 (EKVX NSCLC) of 2.84 µM, a TGI (EKVX NSCLC) of 12.2 µM and a GI50 (HCC-2998 colon) of 2.98 µM. For the same compound, the TGI (HCC-2998 colon) was 9.14 µM, the GI50 (HCT-116 colon) was 3.63 µM and the TGI (HCT-116 colon) was 12.9 µM. It also gave a GI50 (HCT-15 colon) of 1.92 µM, a TGI (HCT-15 colon) of 5.01 µM and a GI50 (HL-60(TB) leukemia) of 2.29 µM. For the same compound, the TGI (HL-60(TB) leukemia) was 11.3 µM, the GI50 (HOP-62 NSCLC) was 3.56 µM and the TGI (HOP-62 NSCLC) was 12.5 µM. The GI50 (HOP-92 NSCLC) was 4.34 µM, the TGI (HOP-92 NSCLC) was 23.4 µM and the GI50 (HS 578T breast) was 3.56 µM. The TGI (HS 578T breast) was > 100 µM, the GI50 (HT29 colon) was 3.07 µM and the TGI (HT29 colon) was 10 µM. For the same compound, the GI50 (IGROV1 ovarian) was 2.41 µM, the TGI (IGROV1 ovarian) was 7.14 µM and the GI50 (K-562 leukemia) was 2.24 µM. For the same compound, the TGI (K-562 leukemia) was > 100 µM, the GI50 (KM12 colon) was 3.24 µM and the TGI (KM12 colon) was 10.6 µM. The GI50 (LOX IMVI melanoma) was 1.54 µM, the TGI (LOX IMVI melanoma) was 3.76 µM and the GI50 (M14 melanoma) was 3.16 µM. For the same compound, the TGI (M14 melanoma) was 13.2 µM, the GI50 (MALME-3M melanoma) was 3.89 µM and the TGI (MALME-3M melanoma) was 16.7 µM. For the same compound, the GI50 (MCF7 breast) was 2.7 µM, the TGI (MCF7 breast) was 11.4 µM and the GI50 (MDA-MB-231 breast) was 3.1 µM. For the same compound, the TGI (MDA-MB-231 breast) was 11.9 µM, the GI50 (MDA-MB-435) was 3.02 µM and the TGI (MDA-MB-435) was 12.1 µM. For the same compound, the GI50 (MDA-MB-468 breast) was 1.58 µM, the TGI (MDA-MB-468 breast) was 3.63 µM and the GI50 (MOLT-4 leukemia) was 2.53 µM. It also gave a TGI (MOLT-4 leukemia) of 10.4 µM, a GI50 (NCI-H226 lung) of 2.64 µM and a TGI (NCI-H226 lung) of 7.79 µM. For the same compound, the GI50 (NCI-H23 lung) was 1.89 µM, the TGI (NCI-H23 lung) was 4.3 µM and the GI50 (NCI-H460 lung) was 1.86 µM. The TGI (NCI-H460 lung) was 4.38 µM, the GI50 (NCI-H522 lung) was 2.65 µM and the TGI (NCI-H522 lung) was 8.02 µM. It also gave a GI50 (OVCAR-3 ovarian) of 2.79 µM, a TGI (OVCAR-3 ovarian) of 7.95 µM and a GI50 (OVCAR-4 ovarian) of 3.85 µM. It also gave a TGI (OVCAR-4 ovarian) of 48.8 µM, a GI50 (OVCAR-5 ovarian) of 3.25 µM and a TGI (OVCAR-5 ovarian) of 11.6 µM. The GI50 (OVCAR-8 ovarian) was 2 µM, the TGI (OVCAR-8 ovarian) was 4.63 µM and the GI50 (PC-3 prostate) was 6.04 µM. For the same compound, the TGI (PC-3 prostate) was 26.8 µM, the GI50 (RPMI-8226 leukemia) was 2.02 µM and the TGI (RPMI-8226 leukemia) was 7.59 µM. For the same compound, the GI50 (RXF 393 renal) was 2.09 µM, the TGI (RXF 393 renal) was 5.13 µM and the GI50 (SF-268 CNS) was 3.43 µM. The TGI (SF-268 CNS) was 14.8 µM, the GI50 (SF-295 CNS) was 3 µM and the TGI (SF-295 CNS) was 11.1 µM. It also gave a GI50 (SF-539 CNS) of 2.11 µM, a TGI (SF-539 CNS) of 4.79 µM and a GI50 (SK-MEL-2 melanoma) of 2.9 µM. The TGI (SK-MEL-2 melanoma) was 11 µM, the GI50 (SK-MEL-28 melanoma) was 3.7 µM and the TGI (SK-MEL-28 melanoma) was 13.2 µM. For the same compound, the GI50 (SK-MEL-5 melanoma) was 2.39 µM, the TGI (SK-MEL-5 melanoma) was 7.34 µM and the GI50 (SK-OV-3 ovarian) was 3.91 µM. It also gave a TGI (SK-OV-3 ovarian) of 13.4 µM, a GI50 (SN12C renal) of 2.57 µM and a TGI (SN12C renal) of 10.2 µM. For the same compound, the GI50 (SNB-19 CNS) was 3.11 µM, the TGI (SNB-19 CNS) was 12 µM and the GI50 (SR leukemia) was 1.76 µM. The TGI (SR leukemia) was 11.3 µM, the GI50 (SW-620 colon) was 3.06 µM and the TGI (SW-620 colon) was 10.5 µM. For the same compound, the GI50 (T-47D breast) was 2.57 µM, the TGI (T-47D breast) was 16.2 µM and the GI50 (TK-10 renal) was 3.54 µM. It also gave a TGI (TK-10 renal) of 11.5 µM, a GI50 (U251 CNS) of 2.42 µM and a TGI (U251 CNS) of 8.48 µM. For the same compound, the GI50 (UACC-257 melanoma) was 4.85 µM, the TGI (UACC-257 melanoma) was 20.4 µM and the GI50 (UACC-62 melanoma) was 2.85 µM. For the same compound, the TGI (UACC-62 melanoma) was 10.9 µM, the GI50 (UO-31 renal) was 2.98 µM and the TGI (UO-31 renal) was 13.1 µM.
For `CCN(CC)CCOc1ccc(C(=O)/C=C\c2ccc(Cl)cc2Cl)cc1`, the GI50 (MDA-MB-468 breast) was 5.05 µM and the TGI (MDA-MB-468 breast) was 19 µM.
Work on `COc1ccc(Nc2cc(C)nc(N3CCN(c4ccnc5cc(Cl)ccc45)CC3)n2)cc1` yielded a GI50 (MDA-MB-468 breast) of 1.77 µM and a TGI (MDA-MB-468 breast) of 5.57 µM.
`CCN(CC)CCSCCCNc1c2ccc(Cl)cc2nc2ccc(OC)cc12` gave a GI50 (MDA-MB-468 breast) of 1.5 µM and a TGI (MDA-MB-468 breast) of 3.05 µM.
`CCCNc1nc2ccccc2c2c1S(=O)(=O)c1ccc(Cl)cc1C2=O` gave a GI50 (MDA-MB-468 breast) of 0.195 µM and a TGI (MDA-MB-468 breast) of 1.47 µM.
